Assay results: patent US20220380763A1, “NUCLEIC ACID DELIVERY ENHANCER” (NATIONAL UNIVERSITY CORPORATION KOCHI UNIVERSITY, priority 2019, published 2022)
Where two headings read alike, the source gives them in different places. Numbered stars: 1 amine (or outer) side, 2 acyl side, 3 side chain; on linkers, the order of the positions; unused ones are H or OH. Square brackets hold non-standard residues; d marks the D form. Peptide text beside a SMILES is read from it. * marks the point of attachment. Pteroyl = Nc1nc2ncc(CNc3ccc(C(=O)*)cc3)nc2c(=O)[nH]1; γGlu = O=C(O)[C@H](CCC(=O)[*:2])N[*:1]; Dab = NCC[C@H](N)C(=O)O

Key:
[1] = tested on: S2-013 pancreatic cancer cells; conditions: for incorporation efficiency of siRNA: among 1 to 3 equivalents; for incorporation efficiency of siRNA compared with Dab8: best equivalent versus Dab8 of 1 to 3 equivalents
Protocol: Since it is difficult to distinguish between intracellularly incorporated labels and non-incorporated labels by flow cytometry, the uptake of siRNA into pancreatic cancer cells was observed using a confocal microscope.
The pancreatic cancer cell line 52-013 (Cell Resource Center for Biomedical Research, Institute of Development, Aging and Cancer, Tohoku University, ID: TKG 0709) was seeded in a 4-well chamber slide (Thermo Fisher Scientific Inc.) at a cell density of 2×10^4 cells/well, and scrambled control siRNA (SEQ ID NOs: 3 and 4) labeled with Alexa647 (Thermo Fisher Scientific Inc.), and Dab8, Fol-Dab8A, or Fol-Dab8B in 1 to 3 equivalents to the siRNA were added and then cultured for 48 hours. The concentration of siRNA used was 8.28 μg/mL in 25 μL, and Dab8, Fol-Dab8A, and Fol-Dab8B were diluted 25-fold from the stock solution (Dab8: 119.3 μg/mL, Fol-Dab8A and Fol-Dab8B: 141.2 μg/mL) and used. The amounts corresponding to 1, 2, and 3 equivalents relative to siRNA are 3.9 μL, 7.8 μL, and 11.7 μL, respectively.
The next day, the cells were fixed with 4% paraformaldehyde, sealed with a DAPI-containing encapsulant, and then observed with an all-in-one fluorescence microscope (BZ-X800, Keyence Corporation).
To quantify the uptake, the hybrid cell count function of the Keyence analysis software BZ-X800 Analyzer was used to count cells into which siRNA was taken up in the presence of Dab8, Fol-Dab8A, and Fol-Dab8B. Determination was made by measuring cells with dark staining of at least ⅓ of the cell nuclei and cells with dark clumps in the periphery of the cell nuclei.

[2] = tested on: pancreatic cancer tissue of mice carrying human pancreatic cancer organoids derived from S2-013 pancreatic cancer cells; conditions: for delivery of SNORA22 siRNA to pancreatic cancer tissue: 5 μg siRNA tail vein, 24 hours
Protocol: Human pancreatic cancer organoids were prepared using 52-013 pancreatic cancer cells by modifying the method described in JP Patent Application Publication No. 2018-110575 A1.
Specifically, the S2-013 pancreatic cancer cells (20×10^4 cells), human mesenchymal stem cells MSC (LONZA, 40×10^4 cells), and human umbilical vein endothelial cells HUVEC (LONZA, 14×10^4 cells) were added to DMEM/Matrigel mixed solution in a 48-well plate (Thermo Fisher Scientific Inc.) and incubated in a CO2 incubator at 37° C. for 30 minutes.
Then, 300 μL/well of DMEM/EGM mixed solution was added thereto and incubated again at 37° C. for 24 hours to prepare one pancreatic cancer organoid in each well.
Subsequently, the skin on the flank of nude mice (6-week-old BALB/cSlc-nu/nu (Pathogen-free female athymic nude mice), Japan SLC, Inc.) was incised, and the pancreatic cancer organoids obtained above were subcutaneously transplanted (2 mice in each group).
Six weeks after transplantation, the chemically-modified SNORA22 siRNA (SEQ ID NOs: 27 and 28, 5 μg) labeled with Alexa-594 was administered with 1, 2, or 3 equivalents of the cationic oligopeptide (Dab8) or the folic acid-cationic oligopeptide complex (Fol-Dab8A or Fol-Dab8B) by tail vein injection. After 24 hours, images were taken with an in vivo imager.
Measuring instrument: Spectrum In Vivo Imaging System (PerkinElmer, Inc., Waltham, Mass.)
Measurement condition: kexc 640 nm, kemi 680 nm
In the same manner as in Example 11, the delivery of chemically-modified SNORA18 siRNA (SEQ ID NOs: 21 and 22) to pancreatic cancer-carrying mice when administered with the folic acid-cationic oligopeptide complex (Fol-Dab8A or Fol-Dab8B) was imaged using an in vivo imager.
In the same manner as in Examples 11 and 13, the delivery of chemically-modified WASF2 siRNA (SEQ ID NOs: 25 and 26) to pancreatic cancer-carrying mice when administered with the folic acid-cationic oligopeptide complex (Fol-Dab8A or Fol-Dab8B) was imaged using an in vivo imager.

NUP85 = NUP85 siRNA (SEQ ID NOs: 7 and 8) in combination; Dab8 1 eq, Fol-Dab8A 3 eq, Fol-Dab8B 1 eq; S2-013 cells, 48 hours
Protocol: (§1) Scrambled control siRNA (SEQ ID NOs: 3 and 4), SNORA18 siRNA (SEQ ID NOs: 5 and 6), NUP85 siRNA (SEQ ID NOs: 7 and 8), WASF2 siRNA (SEQ ID NOs: 9 and 10), and SNORA22 siRNA (SEQ ID NOs: 11 and 12), to which a cationic oligopeptide or a folic acid-cationic peptide was added (a complex of Dab8 with siRNA in 1 equivalent, a complex of Fol-Dab8A with siRNA in 3 equivalents, and a complex of Fol-Dab8B with siRNA in 1 equivalent), were each added to the culture solution the S2-013 cells in a 6-well plate (Thermo Fisher Scientific Inc.) (1.0×10^5 cells/well), and the cells were recovered after 48 hours.
(§2) Semi-quantitative RT-PCR was performed using RNA from the recovered cells to confirm the knockdown effects of SNORA18, NUP85, WASF2, and SNORA22 in the cells.
(§3) Specifically, the total RNA obtained from the S2-013 cells was reverse-transcribed using StrataScript reverse transcriptase (Agilent) and random primers. Appropriate dilutions of each single-stranded cDNA were prepared for subsequent PCR amplification. GAPDH mRNA was used as an internal quantitative control.
(§4) PCR reactions were performed on a TaKaRa PCR Thermal Cycler Dice Gradient with initial denaturation at 94° C. for 2 minutes, followed by 94° C. for 30 seconds, 58° C. for 30 seconds, and 72° C. for 1 minute for 21 cycles (for GAPDH) or 25 cycles (for SNORA18, NUP85, WASF2, and SNORA22). Scanning and densitometric analysis for band intensity measurements were performed using the Quantity One analysis system (Bio-Rad).

WASF2 = WASF2 siRNA (SEQ ID NOs: 9 and 10) in combination; Dab8 1 eq, Fol-Dab8A 3 eq, Fol-Dab8B 1 eq; S2-013 cells, 48 hours
Protocol: as §1, §2, §3, §4

SNORA18 = SNORA18 siRNA (SEQ ID NOs: 5 and 6) in combination; Dab8 1 eq, Fol-Dab8A 3 eq, Fol-Dab8B 1 eq; S2-013 cells, 48 hours
Protocol: as §1, §2, §3, §4

[3] = chemically-modified SNORA18 siRNA, 1 to 3 equivalents
[4] = chemically-modified WASF2 siRNA, 1 to 3 equivalents
[5] = compared to Dab8, 1 to 3 equivalents

Question: With `NCC[C@H](NC(=O)[C@H](CCN)NC(=O)[C@H](CCN)NC(=O)[C@H](CCN)NC(=O)[C@H](CCN)NC(=O)[C@H](CCN)NC(=O)[C@H](CCN)NC(=O)[C@H](CCN)NC(=O)CNC(=O)CNC(=O)CNC(=O)CC[C@H](NC(=O)c1ccc(NCc2cnc3nc(N)[nH]c(=O)c3n2)cc1)C(=O)O)C(N)=O` [Fol-Dab8A] ({Pteroyl-γGlu}-GGG[Dab][Dab][Dab][Dab][Dab][Dab][Dab][Dab]-NH2) as the compound, how does the “incorporation efficiency of siRNA” value ([1]; 3 equivalents) read?
Answer: highest incorporation efficiency

Question: What about the “incorporation efficiency of siRNA compared with Dab8” value [1] of the same compound?
Answer: higher than Dab8

Question: What about the “delivery of SNORA18 siRNA to pancreatic cancer tissue” value (shortened to “delivery of SNORA18 siRNA”) ([2]; 1 equivalent) of the same compound?
Answer: high concentration

Question: What about the “delivery of SNORA18 siRNA” value ([2]; 3 equivalents) of the same compound?
Answer: high concentration

Question: What about the “delivery of SNORA22 siRNA to pancreatic cancer tissue” value (from here on “delivery of SNORA22 siRNA”) ([2]; 3 equivalents) of the same compound?
Answer: high concentration

Question: And the “delivery of SNORA18 siRNA” value [2, 3]?
Answer: enhanced

Question: What about the “delivery of WASF2 siRNA to pancreatic cancer tissue” value (“delivery of WASF2 siRNA” for short) [2, 4] of the same compound?
Answer: enhanced

Question: What about the “delivery of SNORA22 siRNA” value [2, 5] of the same compound?
Answer: enhanced

Question: What about the “knockdown effect on NUP85” value (NUP85) of the same compound?
Answer: remarkable knockdown effects

Question: What about the “knockdown effect on WASF2” value (WASF2) of the same compound?
Answer: remarkable knockdown effects

Question: And the “knockdown effect on SNORA18” value (SNORA18)?
Answer: remarkable knockdown effects

Question: `NCC[C@H](NC(=O)[C@H](CCN)NC(=O)[C@H](CCN)NC(=O)[C@H](CCN)NC(=O)[C@H](CCN)NC(=O)[C@H](CCN)NC(=O)[C@H](CCN)NC(=O)[C@H](CCN)NC(=O)CNC(=O)CNC(=O)CNC(=O)[C@H](CCC(=O)O)NC(=O)c1ccc(NCc2cnc3nc(N)[nH]c(=O)c3n2)cc1)C(N)=O` [Fol-Dab8B] (Pteroyl-EGGG[Dab][Dab][Dab][Dab][Dab][Dab][Dab][Dab]-NH2) was tested. Which “incorporation efficiency of siRNA” value ([1]; 1 equivalent) did it give?
Answer: highest incorporation efficiency

Question: What about the “incorporation efficiency of siRNA compared with Dab8” value [1] of the same compound?
Answer: higher than Dab8

Question: What about the “delivery of WASF2 siRNA” value ([2]; 1 equivalent) of the same compound?
Answer: high concentration

Question: What about the “delivery of SNORA22 siRNA” value ([2]; 2 equivalents) of the same compound?
Answer: high concentration

Question: What about the “delivery of WASF2 siRNA” value ([2]; 3 equivalents) of the same compound?
Answer: high concentration

Question: What about the “delivery of SNORA18 siRNA” value [2, 3] of the same compound?
Answer: enhanced

Question: And the “delivery of WASF2 siRNA” value [2, 4]?
Answer: enhanced

Question: What about the “delivery of SNORA22 siRNA” value [2, 5] of the same compound?
Answer: enhanced

Question: And the “knockdown effect on NUP85” value (NUP85)?
Answer: remarkable knockdown effects

Question: What about the “knockdown effect on WASF2” value (WASF2) of the same compound?
Answer: remarkable knockdown effects

Question: And the “knockdown effect on SNORA18” value (SNORA18)?
Answer: remarkable knockdown effects
